The assay deals with bone cells (line UMR 106 or G 292). Briefly: fixation of calcium in the extra cellular matrix of cultured bone cells (atomic spectrophotometry). As to conditions: for amount of fixed calcium in the extra cellular matrix of the osteoblasts: cells treated with 10 µg of calcium inhibitor, same conditions. The class given is cell-based. How it is done:
In the same conditions the cells are treated with 10 µg Verapamil or any other inhibitor of the calcium such as Cinchonine or Diltiazem.

As for `COc1ccc([C@@H]2Sc3ccccc3N(CCN(C)C)C(=O)[C@@H]2OC(C)=O)cc1` [Diltiazem], the “amount of fixed calcium in the extra cellular matrix of the osteoblasts” value was “equivalent to that of the cells treated with interleukin”.
For “2-oxo 3-hydroxy 25-ethylidene A-nor cholest-3-ene [Maltadiolone]”, for the setting “10 ng of Maltadiolone, in comparison with the untreated control cells, line UMR 106 or G 292”, the fixed calcium result was “increase in the fixed calcium”. Besides, the “fixative activity on the calcium” value (cells treated with both 1 μg IL-1 and 10 μg Maltadiolone) is recorded as “restore a fixative activity on the calcium, equivalent to that of cells untreated with a calcium inhibitor”. The “concentration from which recovery of the fixation of calcium on the extra cellular matrix may be detected” value (same conditions as previously (IL-1 treated cells)) was at least 10 ng/mL.
Regarding `C=C[C@H]1C[N@@]2CC[C@H]1C[C@@H]2[C@@H](O)c1ccnc2ccccc12` [Cinchonine], the “amount of fixed calcium in the extra cellular matrix of the osteoblasts” value is recorded as “equivalent to that of the cells treated with interleukin”.
On the same count and under the same terms, next, `COc1ccc(CCN(C)CCCC(C#N)(c2ccc(OC)c(OC)c2)C(C)C)cc1OC` (stereo not drawn) [Verapamil]: “equivalent to that of the cells treated with interleukin”.

These data come from patent US7186756B2, “Steroid derivatives and use thereof as medicaments” (Inovat, priority 2003, dated 2007).
